Data from the supplement of paper PMC8671470.

Assays:
Assay in all cases: cell viability (% survival relative to DMSO control); higher = less cytotoxic
Details in all cases: 72 h
[1] = tested on: myeloid leukemia patient primary cells Pat.15
Summary of the method: (§1)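 Mononuclear cells from patients with AML or CML were thawed, purified on Ficoll and placed in RPMI 1640 with 10% FBS at 10,000 cells/well on 384-well plates. The plates came pre-printed with 70 compounds at five tenfold concentrations spanning 1–10,000 nM, in duplicate, and cells were exposed for 72 h. CellTiter-Glo gave viability, scaled between DMSO wells and wells with 10 μM proteasome inhibitor. Where reported, area under the curve was obtained from log-logistic fits with four parameters using the drc and PharmacoGx R packages.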

[2] = tested on: myeloid leukemia patient primary cells Pat.2
Summary of the method: as §1

[3] = tested on: myeloid leukemia patient primary cells Pat.4
Summary of the method: as §1

[4] = tested on: myeloid leukemia patient primary cells Pat.5
Summary of the method: as §1

SMILES | cell viability ([1]; 1 nM) | cell viability ([1]; 10 nM) | cell viability ([1]; 100 nM) | cell viability ([1]; 1000 nM) | cell viability ([1]; 10000 nM) | cell viability ([2]; 1 nM) | cell viability ([2]; 10 nM) | cell viability ([2]; 100 nM) | cell viability ([2]; 1000 nM) | cell viability ([2]; 10000 nM) | cell viability ([3]; 1 nM) | cell viability ([3]; 10 nM) | cell viability ([3]; 100 nM) | cell viability ([3]; 1000 nM) | cell viability ([3]; 10000 nM) | cell viability ([4]; 1 nM) | cell viability ([4]; 10 nM) | cell viability ([4]; 100 nM) | cell viability ([4]; 1000 nM) | cell viability ([4]; 10000 nM)
Sc1ncnc2nc[nH]c12 [6-mercaptopurine] | 99.2% | > 100% | 98.5% | 94.3% | 98.3% | 95.6% | > 100% | 94% | 99.9% | > 100% | 79.1% | 80% | 85.9% | 88.2% | 92.3% | 8.91% | 64.1% | 35.4% | 17.2% | 1.33%
Cc1noc2c1-c1ccccc1C(c1ccc(Cl)cc1)=N[C@H]2CC(N)=O [CPI-0610] | 95.1% | 94.6% | 76.1% | 3.36% | 1.08% | 99.4% | 97.6% | 88.9% | 58.5% | 40.3% | 82.5% | 65.6% | 58.1% | 6.43% | 7.38% | 81.3% | 12.4% | 82.4% | 7.88% | 10.1%
Nc1ccn([C@@H]2O[C@H](CO)[C@@H](O)[C@@H]2O)c(=O)n1 [Cytarabine] | 94.5% | 86.4% | 99.6% | 81% | 32.8% | 99% | 88.1% | 95.9% | 89.1% | 37.3% | 87.3% | 88.5% | 75.5% | 75.1% | 5.31% | 84.9% | 1.18% | 24.7% | 1.18% | 2.01%
CCN(CC)CCN(Cc1ccc(-c2ccc(C(F)(F)F)cc2)cc1)C(=O)Cn1c(SCc2ccc(F)cc2)nc(=O)c2c1CCC2 [Darapladib] | 82.5% | > 100% | 85.8% | 96% | 0.433% | 84.7% | 95.9% | 83% | 83.1% | < 0% | 73.2% | 84.2% | 67.9% | 83% | 0.925% | 12.5% | 23.9% | 5.8% | < 0% | 8.02%
CC12CCC(O)CC1CCC1C2CCC2(C)C(C3=CC(=O)OC3)CCC12O (stereo not given) [Digitoxigenin] | > 100% | 92.9% | 97.5% | 8.87% | 2.72% | 94.1% | 95.3% | 88.5% | 42.4% | 6.42% | 89.8% | 81.8% | 81.6% | 5.88% | 1.81% | 56.2% | 38.7% | 33.1% | 0.265% | 4.43%
C[C@H]1O[C@@H](O[C@H]2[C@@H](O)C[C@H](O[C@H]3[C@@H](O)C[C@H](O[C@H]4CC[C@@]5(C)[C@H](CC[C@@H]6[C@@H]5C[C@@H](O)[C@]5(C)[C@@H](C7=CC(=O)OC7)CC[C@]65O)C4)O[C@@H]3C)O[C@@H]2C)C[C@H](O)[C@@H]1O [Digoxin] | 98.4% | 98.4% | 50.6% | 1.74% | 1.52% | 99.2% | 96.8% | 82.8% | 26.6% | 3.27% | 93% | 76.1% | 67.4% | 3.24% | 4.37% | 82.9% | 77.9% | 9.05% | 2.24% | < 0%
Clc1ccc(COC(Cn2ccnc2)c2ccc(Cl)cc2Cl)cc1 (stereo not given) [Econazole] | 84.3% | 92.6% | 98.3% | 89.4% | 68.7% | 94.9% | 91.2% | 96.5% | 97.6% | 90% | 88% | 94.6% | 81.7% | 88.5% | 74.9% | 42.3% | 90.6% | 35.2% | 6.55% | 1.33%
C[C@]12O[C@H](C[C@]1(O)CO)n1c3ccccc3c3c4c(c5c6ccccc6n2c5c31)CNC4=O [Lestaurtinib] | 97.1% | 61.3% | 43.7% | 2.83% | 0.259% | 97.1% | 79% | 74.7% | 51.1% | 11.5% | 93.5% | 64.5% | 8.79% | 31.2% | 2.37% | 22.6% | 2.27% | 10% | 11.2% | < 0%
CC(Cc1ccc(O)c(O)c1)C(C)Cc1ccc(O)c(O)c1 (stereo not given) [Masoprocol] | 89% | 93.8% | 94.4% | 80.9% | 31.1% | 98.7% | 89.8% | 90.3% | 87.7% | 68% | 77.7% | 91.8% | > 100% | 81.8% | 19.3% | 57.1% | 7.88% | 76.6% | 21.6% | > 100%
COc1c(C)c2c(c(O)c1C/C=C(\C)CCC(=O)O)C(=O)OC2 [Mycophenolic acid] | 91.6% | 94.3% | 86.7% | > 100% | 84.3% | 97.4% | 99.8% | 82.1% | > 100% | 85.6% | 88.4% | 95% | 76.3% | 89.2% | 32.9% | < 0% | 62.9% | 26% | 67.3% | > 100%
CCOC(=O)N1c2ccc(C(F)(F)F)cc2[C@@H](N(Cc2cc(C(F)(F)F)cc(C(F)(F)F)c2)C(=O)OC)C[C@H]1CC [Torcetrapib] | 98.5% | 86% | 97.7% | 87.1% | 75.8% | 97.2% | 84.4% | 99.7% | 99.7% | 80.2% | 86.9% | 86% | 74.1% | 97% | 56.7% | 56.9% | 0.265% | 97.4% | 27.5% | 1.18%
